# Patent US8785594B2, “Glycoproteins and glycosylated cells and a method for the preparation of the same” (Glycom A/S, priority 2007, dated 2014)
# Assays:
# B16.BL6 melanoma cells [1] = test: Cell concentration and viability after conjugation, trypan blue (Example 14); type: cell-based
# Protocol: (§1) Nine flasks (300 cm^2) (TPP, Trasadingen Switzerland) of confluent B16.BL6 melanoma cells grown in DMEM containing 10% fetal calf serum (without P/S) at 37.5° C. in 5% CO2 were used for this experiment. Growth medium was removed from the cells and 20 mL of HBSS containing D-glucose (without Mg^2+ and Ca^2+) (Gibco, Invitrogen, Taastrup, Denmark) was added to the cells and immediately removed again. Another 10 mL of HBSS containing D-glucose (without Mg^2+ and Ca^2+) was added and removed, before cells were harvested with Cell Dissociation Solution C5914 (Sigma-aldrich, Saint Louis, Mo.) (10 mL per flask) and transferred to 50 mL tubes (TPP, Trasadingen Switzerland). The cells were centrifuged for 3 minutes at 300 G at 20° C. and the supernatant was discarded. Subsequently, cells were washed twice in HBSS containing D-glucose (without Mg^2+ and Ca^2+), centrifuged as above and resuspended in HBSS containing D-glucose (without Mg^2+ and Ca^2+). The concentration of the cell suspension was determined.
# Radioactive labelled and regular trisaccharide probe was dissolved in HBSS containing D-glucose (without Mg^2+ and Ca^2+) (Gibco Invitrogen, Taastrup, Denmark) and passed through sterile filters (0.2 μm Supor® Acrodisc® 13, Gelman Sciences, Ann Arbor, Mich.). Four different concentrations of each “Glycom conjugate” (25 mg, 5 mg, 1 mg and 0.1 mg) were made. Twelve flasks (150 cm^2) (TPP, Trasadingen Switzerland) were prepared each containing a total of 10×10^6 B16.BL6 cells. The trisaccharide probe was added and the total volume was adjusted to 20 mL with HBSS containing D-glucose (without Mg^2+ and Ca^2+). The cells were incubated with the “Glycom conjugate” for 1.5 hours at 37° C. After conjugation, the supernatant from each flask was transferred to separate 50 mL tubes (TPP, Trasadingen Switzerland). The cells were harvested with Cell Dissociation Solution C5914 (5 mL per flask) (Sigma-Aldrich, Saint Louis, Mo. and transferred to the 50 mL tubes containing the supernatant. The cells were centrifuged for 3 minutes at 300 G at 20° C. and resuspended in 5 mL of PBS (without Mg^2+ and Ca^2+). This was repeated 3 times before cell concentration and viability was determined by microscopical evaluation of trypan blue stained cell samples.
# B16.BL6 melanoma cells [2] = test: Cell concentration and viability after conjugation, trypan blue (Example 15); type: cell-based
# Protocol: as §1, with “Twelve flasks” for “Nine flasks”, “CO2 was” for “CO2 were”
# Radioactive labelled and regular alpha-Gal trisaccharide-carbamate (9) probe (labeled on the cyclic carbamate carbon) was dissolved in HBSS containing D-glucose (without Mg^2+ and Ca^2+) (Gibco Invitrogen, Taastrup, Denmark) and passed through sterile filters (0.2 μm Supor® Acrodisc® 13, Gelman Sciences, Ann Arbor, Mich.). Eight different concentrations of radioactive labelled alpha-Gal trisaccharide-carbamate (9) (1 μg, 10 μg, 100 μg, 1 mg, 5 mg, 10 mg, 15 mg and 20 mg) and […] concentrations of regular “Glycom conjugate” (10 μg, 100 μg, 1 mg, 5 mg, 10 mg, 15 mg and 20 mg) were used. Twelve flasks (300 cm^2) (TPP, Trasadingen Switzerland) were prepared, each containing 10×10^6 B16.BL6 cells, for conjugation with the radioactive labelled trisaccharide probe, and 8 flasks (150 cm^2) (TPP, Trasadingen Switzerland) were prepared, each containing 5×10^6 B16.BL6 cells, for conjugation with the non-radioactive conjugate. The Glycom conjugate was added and the total volume was adjusted with HBSS containing D-glucose (without Mg^2+ and Ca^2+) so that each large flask (300 cm^2) contained a final volume of 20 mL and each medium flask (150 cm^2) contained a final volume of 10 mL. Cells were incubated with the “Glycom conjugate” for 1.5 hours at 37° C. After conjugation, the supernatant from each flask was transferred to separate 50 mL tubes (TPP, Trasadingen Switzerland). The cells were harvested with Cell Dissociation Solution (10 mL per large flask and 5 mL per medium flask) (Sigma-aldrich, Saint Louis, Mo.) and transferred to the 50 mL tubes containing the supernatant. The cells were centrifuged for 5 minutes at 300 G at 20° C. and resuspended in 5 mL of PBS (without Mg^2+ and Ca^2+). […]
# [3] = regular conjugate 25 mg, 10×10^6 cells, 1.5 hours
# [4] = reaction 2, regular conjugate 20 mg, 5×10^6 cells, 1.5 hours, after washing once
# [5] = reaction 3, regular conjugate 15 mg
# [6] = reaction 4, regular conjugate 10 mg
# [7] = reaction 5, regular conjugate 5 mg
# [8] = reaction 6, regular conjugate 1 mg
# [9] = reaction 7, regular conjugate 100 μg
# [10] = reaction 8, regular conjugate 10 μg
# [11] = radioactive labelled conjugate 0.1 mg
# [12] = radioactive labelled conjugate 1 mg
# [13] = radioactive labelled conjugate 5 mg, cells from supernatant only
# [14] = radioactive labelled conjugate 25 mg, attached cells only
# [15] = reaction C, radioactive labelled conjugate 20 mg, 10×10^6 cells, 1.5 hours, after washing 4 times
# [16] = reaction D, radioactive labelled conjugate 15 mg
# [17] = reaction E, radioactive labelled conjugate 10 mg
# [18] = reaction F, radioactive labelled conjugate 5 mg
# [19] = reaction G, radioactive labelled conjugate 1 mg
# [20] = reaction H, radioactive labelled conjugate 100 μg
# [21] = reaction I, radioactive labelled conjugate 10 μg
# [22] = reaction J, radioactive labelled conjugate 1 μg
structure (smiles),measurement,setting,value
"O=C1N[C@@H]2O[C@H](CO)[C@@H](O[C@@H]3O[C@H](CO)[C@H](O)[C@H](O[C@H]4O[C@H](CO)[C@H](O)[C@H](O)[C@H]4O)[C@H]3O)[C@H](O)[C@H]2O1 [Compound 9, alpha-Gal trisaccharide-carbamate]",Cell concentration,B16.BL6 melanoma cells [1]; regular conjugate 0.1 mg,7.4 × 10^5
same,Cells harvested,B16.BL6 melanoma cells [1]; regular conjugate 0.1 mg,3.7 × 10^6
same,Cells harvested (percent),B16.BL6 melanoma cells [1]; regular conjugate 0.1 mg,37%
same,Viability,B16.BL6 melanoma cells [1]; regular conjugate 0.1 mg,67.6%
same,Cell concentration,B16.BL6 melanoma cells [1]; regular conjugate 1 mg,13.4 × 10^5
same,Cells harvested,B16.BL6 melanoma cells [1]; regular conjugate 1 mg,6.7 × 10^6
same,Cells harvested (percent),B16.BL6 melanoma cells [1]; regular conjugate 1 mg,67%
same,Viability,B16.BL6 melanoma cells [1]; regular conjugate 1 mg,79.1%
same,Cell concentration,B16.BL6 melanoma cells [1]; regular conjugate 5 mg,7.0 × 10^5
same,Cells harvested,B16.BL6 melanoma cells [1]; regular conjugate 5 mg,3.5 × 10^6
same,Cells harvested (percent),B16.BL6 melanoma cells [1]; regular conjugate 5 mg,35%
same,Viability,B16.BL6 melanoma cells [1]; regular conjugate 5 mg,91.4%
same,Cell concentration,B16.BL6 melanoma cells [1]; [3],9.0 × 10^5
same,Cells harvested,B16.BL6 melanoma cells [1]; [3],4.5 × 10^6
same,Cells harvested (percent),B16.BL6 melanoma cells [1]; [3],45%
same,Viability,B16.BL6 melanoma cells [1]; [3],77.8%
same,Cell concentration,B16.BL6 melanoma cells [2]; [4],4.2 × 10^5 cells/mL
same,Cells harvested,B16.BL6 melanoma cells [2]; [4],1.1 × 10^6
same,Cells harvested (percent),B16.BL6 melanoma cells [2]; [4],21%
same,Viability,B16.BL6 melanoma cells [2]; [4],85.7%
same,Cell concentration,B16.BL6 melanoma cells [2]; [5],6.0 × 10^5 cells/mL
same,Cells harvested,B16.BL6 melanoma cells [2]; [5],1.5 × 10^6
same,Cells harvested (percent),B16.BL6 melanoma cells [2]; [5],30%
same,Viability,B16.BL6 melanoma cells [2]; [5],80.0%
same,Cell concentration,B16.BL6 melanoma cells [2]; [6],2.8 × 10^5 cells/mL
same,Cells harvested,B16.BL6 melanoma cells [2]; [6],0.7 × 10^6
same,Cells harvested (percent),B16.BL6 melanoma cells [2]; [6],14%
same,Viability,B16.BL6 melanoma cells [2]; [6],71.4%
same,Cell concentration,B16.BL6 melanoma cells [2]; [7],4.4 × 10^5 cells/mL
same,Cells harvested,B16.BL6 melanoma cells [2]; [7],1.1 × 10^6
same,Cells harvested (percent),B16.BL6 melanoma cells [2]; [7],22%
same,Viability,B16.BL6 melanoma cells [2]; [7],81.8%
same,Cell concentration,B16.BL6 melanoma cells [2]; [8],4.2 × 10^5 cells/mL
same,Cells harvested,B16.BL6 melanoma cells [2]; [8],1.1 × 10^6
same,Cells harvested (percent),B16.BL6 melanoma cells [2]; [8],21%
same,Viability,B16.BL6 melanoma cells [2]; [8],66.7%
same,Cell concentration,B16.BL6 melanoma cells [2]; [9],6.0 × 10^5 cells/mL
same,Cells harvested,B16.BL6 melanoma cells [2]; [9],1.5 × 10^6
same,Cells harvested (percent),B16.BL6 melanoma cells [2]; [9],30%
same,Viability,B16.BL6 melanoma cells [2]; [9],60.1%
same,Cell concentration,B16.BL6 melanoma cells [2]; [10],4.2 × 10^5 cells/mL
same,Cells harvested,B16.BL6 melanoma cells [2]; [10],1.1 × 10^6
same,Cells harvested (percent),B16.BL6 melanoma cells [2]; [10],21%
same,Viability,B16.BL6 melanoma cells [2]; [10],57.1%
O=[13C]1N[C@@H]2O[C@H](CO)[C@@H](O[C@@H]3O[C@H](CO)[C@H](O)[C@H](O[C@H]4O[C@H](CO)[C@H](O)[C@H](O)[C@H]4O)[C@H]3O)[C@H](O)[C@H]2O1 [radioactive labelled conjugate],Cell concentration,B16.BL6 melanoma cells [1]; [11],13.8 × 10^5
same,Cells harvested,B16.BL6 melanoma cells [1]; [11],6.9 × 10^6
same,Cells harvested (percent),B16.BL6 melanoma cells [1]; [11],69%
same,Viability,B16.BL6 melanoma cells [1]; [11],91.3%
same,Cell concentration,B16.BL6 melanoma cells [1]; [12],14.8 × 10^5
same,Cells harvested,B16.BL6 melanoma cells [1]; [12],7.4 × 10^6
same,Cells harvested (percent),B16.BL6 melanoma cells [1]; [12],74%
same,Viability,B16.BL6 melanoma cells [1]; [12],93.2%
same,Cell concentration,B16.BL6 melanoma cells [1]; [13],10.8 × 10^5
same,Cells harvested,B16.BL6 melanoma cells [1]; [13],5.4 × 10^6
same,Cells harvested (percent),B16.BL6 melanoma cells [1]; [13],54%
same,Viability,B16.BL6 melanoma cells [1]; [13],81.5%
same,Cell concentration,B16.BL6 melanoma cells [1]; [14],2.0 × 10^5
same,Cells harvested,B16.BL6 melanoma cells [1]; [14],1.0 × 10^6
same,Cells harvested (percent),B16.BL6 melanoma cells [1]; [14],10%
same,Viability,B16.BL6 melanoma cells [1]; [14],90.0%
same,Cell concentration,B16.BL6 melanoma cells [2]; [15],6.1 × 10^6 cells/mL
same,Cells harvested,B16.BL6 melanoma cells [2]; [15],2.7 × 10^6
same,Cells harvested (percent),B16.BL6 melanoma cells [2]; [15],27.5%
same,Viability,B16.BL6 melanoma cells [2]; [15],82.0%
same,Cell concentration,B16.BL6 melanoma cells [2]; [16],4.3 × 10^6 cells/mL
same,Cells harvested,B16.BL6 melanoma cells [2]; [16],1.9 × 10^6
same,Cells harvested (percent),B16.BL6 melanoma cells [2]; [16],19.4%
same,Viability,B16.BL6 melanoma cells [2]; [16],88.9%
same,Cell concentration,B16.BL6 melanoma cells [2]; [17],12 × 10^6 cells/mL
same,Cells harvested,B16.BL6 melanoma cells [2]; [17],5.4 × 10^6
same,Cells harvested (percent),B16.BL6 melanoma cells [2]; [17],54.0%
same,Viability,B16.BL6 melanoma cells [2]; [17],86.7%
same,Cell concentration,B16.BL6 melanoma cells [2]; [18],5.2 × 10^6 cells/mL
same,Cells harvested,B16.BL6 melanoma cells [2]; [18],2.3 × 10^6
same,Cells harvested (percent),B16.BL6 melanoma cells [2]; [18],23.4%
same,Viability,B16.BL6 melanoma cells [2]; [18],82.7%
same,Cell concentration,B16.BL6 melanoma cells [2]; [19],5.9 × 10^6 cells/mL
same,Cells harvested,B16.BL6 melanoma cells [2]; [19],2.7 × 10^6
same,Cells harvested (percent),B16.BL6 melanoma cells [2]; [19],26.6%
same,Viability,B16.BL6 melanoma cells [2]; [19],91.5%
same,Cell concentration,B16.BL6 melanoma cells [2]; [20],3.8 × 10^6 cells/mL
same,Cells harvested,B16.BL6 melanoma cells [2]; [20],1.7 × 10^6
same,Cells harvested (percent),B16.BL6 melanoma cells [2]; [20],17.1%
same,Viability,B16.BL6 melanoma cells [2]; [20],81.6%
same,Cell concentration,B16.BL6 melanoma cells [2]; [21],6.2 × 10^6 cells/mL
same,Cells harvested,B16.BL6 melanoma cells [2]; [21],2.8 × 10^6
same,Cells harvested (percent),B16.BL6 melanoma cells [2]; [21],27.9%
same,Viability,B16.BL6 melanoma cells [2]; [21],82.3%
same,Cell concentration,B16.BL6 melanoma cells [2]; [22],5.0 × 10^6 cells/mL
same,Cells harvested,B16.BL6 melanoma cells [2]; [22],2.3 × 10^6
same,Cells harvested (percent),B16.BL6 melanoma cells [2]; [22],22.5%
same,Viability,B16.BL6 melanoma cells [2]; [22],84.0%
